Bridge positions count the residues as written; N and C are the ends. Square brackets hold non-standard residues; d marks the D form. Peptide text beside a SMILES is read from it. * marks the point of attachment. X1 = CC[C@H](C)CCCCC(=O)*; Dab = NCC[C@H](N)C(=O)O
Tests used:
[1] = system: carbapenem resistant A. baumannii (CRAB); assay: Clinical/microbiological outcome of CMS/Colistin treatment; format: in vivo, human (critically ill ICU patients)
Experimental: Microbiology testing was performed by the university’s Department of Microbiology. Samples included regular swab testing for screening purposes (nasal, inguinal, anal, tracheal) and specific testing of blood cultures, wound samples for detection of tissue infection, bronchoalveolar lavage (BAL) fluid and urine.

clinical = format: in vivo, human (critically ill ICU patients); conditions: for t1/2 of Colistin: first-order fit
Experimental: (§1) Blood samples were immediately centrifuged and refrigerated.
While CMS is excreted primarily via the kidneys, Colistin elimination pathways remain unclear. […] We were able to calculate elimination half-life for Colistin in 6 out of 8 patients. In our cohort, elimination half-time was greatly extended to a mean of 22.0 h (Figure 2A). The individual half-life kinetics, including details on curve fitting, are provided in the Supplementary Materials (Supplementary Materials “Elimination half times of Colistin” Figures S1–S6). Individual elimination kinetics followed a first-order kinetic. In one patient (Patient 2), we established CRRT in the midst of the elimination time course. This allowed us to forward project kinetics without CRRT and backwards interpolate kinetics with CRRT. […] The amount of available CMS relevantly impacts upon Colistin levels, since CMS acts as a pro-drug. Thus, elimination of CMS is key to reduce Colistin plasma levels whereas CMS accumulation is the source for Colistin build up. CMS elimination can be rapidly affected by changes of renal function and distribution volume. CMS trough levels might indicate potential accumulation of CMS and subsequent accumulation of Colistin. This is of potential relevance when renal CMS elimination might be impaired.
Extensive Therapeutic Drug Monitoring Of
Supplemental material 1 – elimination half times of Colistin
Figure S1: plasma levels of Colistin after cessation of CMS administration. (A) linear
scaling of colistin plasma levels in [mg/L]; fit of an 1st decay elimination curve, y =
1,5111e-0,029x, R2= 0.97, p<0.001; (B) linear scaling colistin plasma levels in [mg/L] after
(also on this page, place not known: 1 st Colistin [mg/L] ln (Colistin [mg/L]) time [h] time [h] (A) (B))
(1 picture or pasted object on this page, not shown here)

[2] = cited from earlier work; for elimination by prolonged intermittent RRT: ref Schmidt et al. [24]
From the text: Colistin was isolated from Bacillus polymyxa subsp. colistinus and consists of a cyclic heptapeptide and a tripeptide side chain acetylated at the N-terminus by a fatty acid moiety. Earlier commercially available Colistin consisted of a mixture of several chemically related subcomponents, including the two major components Colistin A and Colistin B, with a known, concentration-dependent (nephro-, neuro-, oto-) toxicity. […] Following par ... || While CMS is excreted primarily via the kidneys, Colistin elimination pathways remain unclear. […] We were able to calculate elimination half-life for Colistin in 6 out of 8 patients. In our cohort, elimination half-time was greatly extended to a mean of 22.0 h (Figure 2A). […] Subsequently CRRT became necessary due to sustained renal failu ...

[3] = Therapeutic drug monitoring of CMS and Colistin plasma levels by HPLC-MS/MS
Experimental: Eight critically ill patients, some of them under renal replacement therapy (continuous venovenous hemodialysis (CVVHD), intermittent HD (IHD)), infected with gram negative MDR pathogens were treated with CMS. Daily measurements of serum creatinine levels and estimation of glomerular filtration rate using the CKD-EPI Creatinine (eGFR CKD-EPI) equation [16] were used to monitor renal function. Samples were collected multiple times daily prior to/after every dose of CMS for trough/peak level determination of CMS and Colistin. After termination of the Colistin treatment course, samples were derived from the individual patient, to ensure complete and timely removal of Colistin. Blood samples were immediately centrifuged and refrigerated. The plasma was frozen and kept at −20 °C until analysis. After analysis samples were kept at −80 °C for long term storage.
We aimed for target Colistin serum levels of >2 mg/L in patients suffering from A. baumannii infection alone, or >4 mg/L in patients with singular Pseudomonas infections or combined infections. Dosing was done with or without a loading dose of 6–9 million international units (IU) Colistin and subsequent doses of either 3 × 2 million IU/day, 3 × 3 million IU/day, 3 × 4 million IU or 2 × 4.5 million IU, as indicated.
A total of 50 μL of plasma samples, calibrators and controls were precipitated with 200 μL of ice cold isopropanol containing 0.5 μg/mL polymyxin B as internal standard and 0.02% TFA. After 10 min at −20 °C, centrifuging 5 min with 20,000 g at 4 °C, 100 μL of the supernatant was diluted with 400 μL of the appropriate solvent (water or 30% DMSO in water respectively) and put into the auto sampler at 4 °C. LC-MS/MS system: Dionex UltiMate 3000 XRS autosampler, XRS quaternary UHPLC pump, RS Column compartment. Column used: Aeris Peptide 1.7 μm XB-C18 2.1 × 100 mm (Phenomenex), 40 °C. Mobile phases: Gradient starting with 19% lcms-grade acetonitrile (Baker) and 0.05% TFA (Sigma) in water (Milli-Q) to 40% within 1.6 min at a flow rate of 500 μL/min. Mass spectrometer: TSQ-Vantage triple quad mass spectrometer (Thermo Fisher Scientific, San Jose, CA, USA), HESI-source, positive electrospray ionization mode, settings: ionization voltage 3500 V, vaporizer temperature 500 °C, sheath gas flow 40 (arb), auxiliary gas flow 15 (arb), capillary temperature 200 °C and declustering voltage 10 V. For multiple reaction monitoring (MRM), argon was used as collision gas at a pressure of 1.1 × 10^−3 Torr. Doubly charged parent ions of Colistins (578.5/100.9, 585.4/100.9) and polymyxin B (602.4/100.9) were used for fragmentation and the product ions and collision energies have been optimized for best intensities. A detailed procedure protocol including description of standardization, sample preparation, sample stability etc., is available upon request.

[4] = design: species or system human (critically ill ICU patients); conditions: in vivo
From the text: as §1

CC[C@H](C)CCCCC(=O)N[C@@H](CCN)C(=O)N[C@H](C(=O)N[C@@H](CCN)C(=O)N[C@H]1CCNC(=O)[C@H]([C@@H](C)O)NC(=O)[C@H](CCN)NC(=O)[C@H](CCN)NC(=O)[C@H](CC(C)C)NC(=O)[C@@H](CC(C)C)NC(=O)[C@H](CCN)NC1=O)[C@@H](C)O [Colistin] (X1-[Dab]T[Dab][Dab][Dab][dL]L[Dab][Dab]T; lactam 4-C)
result of treatment ([1]; Patient 1, CRAB wound infection, 3 × 3 million IU CMS, 7 days, colonization persisted): eradication of the CRAB wound infection was achieved | result of treatment ([1]; Patient 2, CRAB bloodstream, wound and pulmonary infection, colonization and pulmonary infection remained): cured the bloodstream infection | result of treatment ([1]; Patient 6, first treatment cycle, bloodstream and pulmonary CRAB infection): bloodstream infection was cured but colonization persisted | t1/2 of Colistin (clinical; Patient 1, eGFR 119 mL/min/1.73m^2, RRT none, R2 = 0.97): 23.6 h | t1/2 of Colistin (clinical; Patient 2, eGFR 27 mL/min/1.73m^2, RRT none, R2 = 0.99): 23.43 h | t1/2 of Colistin (clinical; Patient 4, eGFR 58 mL/min/1.73m^2, RRT CVVHDF, R2 = 0.996): 19.5 h | t1/2 of Colistin (clinical; Patient 5, eGFR 59 mL/min/1.73m^2, RRT IHD, R2 = 0.98): 16.5 h | t1/2 of Colistin (clinical; Patient 6, eGFR 99 mL/min/1.73m^2, RRT CVVHDF, R2 = 0.91): 30.9 h | t1/2 of Colistin (clinical; Patient 8, eGFR 51 mL/min/1.73m^2, RRT IHD, R2 = 0.999): 17.9 h | half-life (clinical; human, in vivo, mean of 6 out of 8 patients, plasma after end of CMS treatment, first-order kinetic, read-out: elimination half-time of Colistin, mean (converted)): 22 h | elimination by prolonged intermittent RRT [2]: up to 50% | time to Colistin levels >2 mg/L after dose increase ([3]; Patient 2, dose increased from 3 × 2 to 3 × 4 million IU): 48 h | time to sufficient Colistin levels ([3]; Patient 4, loading dose 9 million IU, then 3 × 3 million IU CMS daily, target 4 mg/L): eight | time to target Css,avg of ~4 mg/L after dose increase ([3]; Patient 4, under CVVHDF, 3 × 4 million IU per day): four | time to Colistin plasma levels between 3–4 mg/L ([3]; Patient 6, second treatment cycle, loading dose 9 million IU, then 3 million IU CMS three times a day): 8 to 16 h | time to target Colistin plasma levels ([3]; Patient 7, second treatment cycle, loading dose 9 million IU, 4.5 million IU twice daily, CVVHDF): three | accumulation in plasma ([3]; Patient 8, IHD-adjusted dosing with loading dose of 9 million IU, CMS stopped after 3 days): rapid accumulation | level at 48 h ([3]; human, in vivo): > 2000 ng/mL | level at 96 h ([3]; human, in vivo): ~4000 ng/mL | level at 720 h ([3]; human, in vivo): < 2000 ng/mL | mean Colistin peak level ([3]; plasma, sampled 30 min after CMS injection, all patients pooled, mean (±SD), n = 383, HPLC-MS/MS, unit not given): 3.5 (±1.3, n = 383) | mean Colistin trough level ([3]; plasma, sampled immediately prior to CMS injection, all patients pooled, mean (±SD), n = 386, HPLC-MS/MS, unit not given): 3.45 (±1.3, n = 386)

Colistin methanosulfate [CMS]
renal function (eGFR) under treatment [4]: gradual decline of renal function | result of treatment ([1]; Patient 3, CRAB bloodstream and wound infection, after dose increase to 3 × 4 million IU): eradication of both bloodstream and wound infection | result of treatment ([1]; Patient 4, in combination with surgical focus eradication, MDR Pseudomonas infection and colonization persisted): the CRAB infection was eliminated | result of treatment ([1]; Patient 5, 3 × 4 million IU, colonization with CRAB persisted): successfully eradicated CRAB from the bloodstream and from pulmonary samples | result of treatment ([1]; Patient 6, second treatment cycle, recurrent CRAB bloodstream infection, blood stream samples): eradication of CRAB within 3 days of treatment | result of treatment ([1]; Patient 7, first treatment cycle, 6 days of CMS): successful eradication of CRAB from wound samples | result of treatment ([1]; Patient 7, second treatment cycle, 4.5 million IU twice daily, resistant colonization remained): the bloodstream infection was successfully eradicated | portion of CMS undergoing renal excretion [2]: about two thirds | elimination by prolonged intermittent RRT [2]: up to 50% | mean CMS trough level ([3]; in vivo): 1.6 mg/L | mean CMS peak level ([3]; plasma, sampled 30 min after CMS injection, all patients pooled, mean (±SD), n = 381, HPLC-MS/MS, unit not given): 8.7 (±4.1, n = 381)

— PMC7143967, “Extensive Therapeutic Drug Monitoring of Colistin in Critically Ill Patients Reveals Undetected Risks” (Microorganisms, 2020)
